Laboratory results as given in patent US10272075B2, “Method and composition for treating an alpha adrenoceptor-mediated condition” (Vanda Pharmaceuticals, Inc., priority 2007, dated 2019).

Key:
rats [1] = settings: administered intraduodenally; cited from earlier work
[2] = tested on: human isolated prostatic adenoma; settings: human isolated prostatic adenoma obtained from BPH patients; cited from earlier work
conscious rats = settings: i.v.; cited from earlier work
alpha1-adrenoceptors [3] = tested on: T1, alpha1-adrenoceptors; settings: rabbit isolated prostate; cited from earlier work
T1 construct: antagonist potency (pA2) estimated by the Schild plot; other: rabbit isolated prostate, vs PE, 0.1-3 uM, 60 min incubat; other: rabbit isolated prostate, vs PE, single concentration 0.01 μ; pKb; other: rabbit isolated prostate

alpha 1 adrenoceptors = test: receptor affinity/potency profile, alpha 1 adrenoceptors; format: binding
[4] = tested on: dopamine, histamine and serotonin receptors (other than 5HT2A); test: receptor affinity/potency profile, dopamine, histamine and serotonin receptors; format: binding
rat alpha1A-adrenoceptor = target: T2, rat alpha1A-adrenoceptor (Rattus norvegicus, UniProt P43140); test: binding studies, rat alpha1A-adrenoceptor; settings: data communicated by Dr. Baroldi, Vanda Pharmaceuticals
T2 sequence (P43140 1-466): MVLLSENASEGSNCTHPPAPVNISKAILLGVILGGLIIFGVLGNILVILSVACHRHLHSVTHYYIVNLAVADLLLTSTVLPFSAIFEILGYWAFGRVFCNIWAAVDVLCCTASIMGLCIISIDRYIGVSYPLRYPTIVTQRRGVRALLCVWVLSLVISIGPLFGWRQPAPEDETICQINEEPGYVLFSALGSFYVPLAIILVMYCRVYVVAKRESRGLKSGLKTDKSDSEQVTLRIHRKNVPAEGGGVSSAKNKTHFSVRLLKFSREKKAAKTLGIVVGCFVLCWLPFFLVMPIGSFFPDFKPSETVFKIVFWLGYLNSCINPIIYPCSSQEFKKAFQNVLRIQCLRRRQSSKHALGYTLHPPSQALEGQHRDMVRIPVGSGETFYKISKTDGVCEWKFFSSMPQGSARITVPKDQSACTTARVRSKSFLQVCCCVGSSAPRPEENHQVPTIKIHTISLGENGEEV
Source text: (§1) The pA2 of 4-[3-[4-(6-fluoro-1,2,-benzisoxazol-3-yl)-1-piperidinyl]propoxy]-3-methoxy-benzoic acid (7.50) is in accordance with the value previously found on the rabbit isolated prostate. […] Importantly, it is recognized that blockade of both alpha1A-and alpha1D-adrenoceptors is necessary for optimal clinical effect on BPH patients (Andersson K E, World J. Urol. 19: 390-96, 2002).

alpha1-adrenoceptors [5] = test: phenylephrine (PE)-induced contraction in the prostatic smooth muscle of male rabbits (isolated strips, organ bath); set-up: species or system rabbit
Protocol: (§2) It is well established in the literature that the rabbit is a good model for the pharmacology of the lower urinary tract. In particular, a correlation was found between affinities for cloned alpha1a-adrenoceptors and antagonist potency (pKb) values for several alpha1-adrenoceptors antagonists in the rabbit isolated prostate (Martin et al., J. Pharmacol. Expr. Ther. 282: 228-35, 1997). Briefly, following animal sacrifice, transverse preparations of the prostate were suspended vertically in 25 mL glass organ baths under a loading tension of 1 g and placed in an oxygenated, modified Krebs solution (NaCl 114 mM, KCl 4.7 mM, CaCl2 2.5 mM, KH2PO4 1.2 mM, NaHCO3 25 mM, glucose 11.7 mM (pH 7.4, gassed with 95% O2 and 5% CO2 at 37° C.). Propranolol (1 μM), desipramine (0.1 μM), deoxycorticosterone (3 μM) and normetanephrine (1 μM) were added to the Krebs-Henseleit solution in order to block beta-adrenoceptors, neuronal and extraneuronal uptake and catechol-O-methyl transferase, respectively. After 60 min of equilibration, smooth muscle strips were exposed to 30 μM PE to measure their viability. Strips having low contractile responses (<0.5 g) were discarded. Following a 30 min washout period, a first concentration-response curve (CRC) to PE (in the range 0.1 μM-1 mM) was obtained by cumulative additions as half-log unit concentrations increments. Then, tissues were washed for 60 min and incubated for 60 min with the test substance (at four different concentrations) before a second PE CRC was obtained (in the range 0.1 μM-10 mM). Only one concentration for the test substance was tested on each single smooth muscle strip.

alpha1-adrenoceptors [6] = tested on: T1, alpha1-adrenoceptors; test: as above; set-up: species or system rabbit; settings: rabbit isolated prostate, vs PE
Protocol: as §2

anesthetized rats [7] = test: PE-induced increase in intra-urethral pressure (UP) in anesthetized rats, intravenous administration; format: in vivo, rat; settings: for effect on agonist (PE) effect on UP: PE dose range 10-300 ug/kg
Protocol: Briefly, catheters were inserted into the femoral vein of anesthetized male rats for drug administration and into the urethra through the bladder wall for measuring urethral pressure (UP). […] The different doses of PE (between 3 and 300 ug/kg in controls and up to 3000 ug/kg in treated animals) were administered intravenously under a volume of 1 mL/kg as a bolus with a 3 minute interval between each dose.

serotonin 5HT2A receptor = serotonin 5HT2A receptor (Homo sapiens, UniProt P28223); test: receptor affinity/potency profile, serotonin 5HT2A receptor; format: binding
anesthetized rats [8] = test: PE-induced increase in intraurethral pressure (UP) and arterial blood pressure (BP) in anesthetized rats, oral administration; format: in vivo, rat; settings: for UP100% value (dose of PE increasing baseline UP by 100%), statistical significance / effect on BP, from BP10% to BP100%: 45 min; for effect on basal BP levels / effect on basal UP: oral; for effect on basal BP levels: 25 and 45 minutes after administration; for effect on basal UP: measured 25 or 45 minutes later
Protocol: An experiment was conducted to evaluate the antagonistic effect of 4-[3-[4-(6-fluoro-1,2,-benzisoxazol-3-yl)-1-piperidinyl]propoxy]-3-methoxy-benzoic acid on the PE-induced increase in intraurethral pressure (UP) and arterial blood pressure (BP) in anesthetized rats.

[9] = DMPK studies in rats with [14C]-labelled compound, brain radioactivity; format: in vivo, rat; settings: rats treated with [14C] compound
Source text: 4-[3-[4-(6-fluoro-1,2,-benzisoxazol-3-yl)-1-piperidinyl]propoxy]-3-methoxy-benzoic acid appears not to cross the blood-brain barrier. Specifically, in DMPK studies using rats treated with [14C] […] Therefore, 4-[3-[4-(6-fluoro-1,2,-benzisoxazol-3-yl)-1-piperidinyl]propoxy]-3-methoxy-benzoic acid is particularly useful in conditions that are not mediated, to a substantial degree, by receptors in the brain.

[10] = target: T3, cloned human alpha1 D-adrenoceptor (Homo sapiens, UniProt P25100); test: binding studies, cloned human alpha1D-adrenoceptor; settings: data communicated by Dr. Baroldi, Vanda Pharmaceuticals
T3 construct: expressed in transfected cells
T3 sequence (P25100 1-572): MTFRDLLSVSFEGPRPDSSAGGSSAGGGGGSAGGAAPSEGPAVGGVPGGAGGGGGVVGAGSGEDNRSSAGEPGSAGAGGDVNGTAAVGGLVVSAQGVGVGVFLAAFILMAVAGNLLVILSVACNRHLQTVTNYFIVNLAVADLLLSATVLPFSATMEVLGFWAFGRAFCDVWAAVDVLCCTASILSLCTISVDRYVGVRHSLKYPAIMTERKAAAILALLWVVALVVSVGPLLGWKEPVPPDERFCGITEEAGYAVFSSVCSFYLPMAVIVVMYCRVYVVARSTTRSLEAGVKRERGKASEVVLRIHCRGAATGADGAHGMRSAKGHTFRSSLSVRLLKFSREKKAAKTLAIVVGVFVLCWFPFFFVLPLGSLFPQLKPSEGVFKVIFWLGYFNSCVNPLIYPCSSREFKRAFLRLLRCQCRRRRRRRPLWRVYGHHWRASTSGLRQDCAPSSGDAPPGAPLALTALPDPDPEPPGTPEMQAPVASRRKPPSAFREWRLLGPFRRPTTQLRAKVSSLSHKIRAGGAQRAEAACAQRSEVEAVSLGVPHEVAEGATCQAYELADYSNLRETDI
Source text: as §1

rats [11] = test: bladder outlet obstruction-induced bladder dysfunction in rats, 1-week treatment; format: in vivo, rat; settings: for effect on bladder hypertrophy secondary to outlet obstruction / effect on cystometric parameters: 1-week treatment; for effect on cystometric parameters: bladder outlet obstruction rats
Protocol: In another experiment, the effect of a 1-week treatment with 4-[3-[4-(6-fluoro-1,2,-benzisoxazol-3-yl)-1-piperidinyl]propoxy]-3-methoxy-benzoic acid, tamulosin, and a common vehicle on bladder outlet obstruction-induced bladder dysfunction in rats was evaluated. […] However, this latter effect was exclusively observed at the lowest dose tested (1 mg/kg/day).

[12] = tested on: human alpha1-adrenoceptors expressed in the prostatic adenoma; test: norepinephrine (NE)-induced contraction in prostatic adenoma from BPH patients (isolated strips, organ bath); settings: for effect on pEC50 of the second CRC to NE: 60 min incubation
Protocol: Briefly, human prostatic adenoma was obtained from 6 patients (mean age 71±5 years) undergoing transvesical adenomectomy of the prostate because of BPH. Prostatic strips were mounted in glass organ baths containing a modified Krebs-Henseleit solution (NaCl 114 mM, KCl 4.7 mM, CaCl2 2.5 mM, KH2PO4 1.2 mM, NaHCO3 25 mM, glucose 11.7 mM, ascorbic acid 1.1 mM (pH 7.4, gassed with 95% O2 and 5% CO2 at 37° C.) under 1.5 g tension. […] Strips having a contractile response <0.3 g were discarded. After washout and 60 min of re-equilibration to re-establish baseline tension, a first cumulative concentration-response curve to NE (in the range 0.1 μM-1 mM) was constructed until a plateau of contraction was reached. […] Only one concentration of antagonist was tested in a single strip. […] The quantity of DMSO in the organ baths was equal to 0.1%.

Chain of serotonin 5HT2A receptor (P28223 whole entry): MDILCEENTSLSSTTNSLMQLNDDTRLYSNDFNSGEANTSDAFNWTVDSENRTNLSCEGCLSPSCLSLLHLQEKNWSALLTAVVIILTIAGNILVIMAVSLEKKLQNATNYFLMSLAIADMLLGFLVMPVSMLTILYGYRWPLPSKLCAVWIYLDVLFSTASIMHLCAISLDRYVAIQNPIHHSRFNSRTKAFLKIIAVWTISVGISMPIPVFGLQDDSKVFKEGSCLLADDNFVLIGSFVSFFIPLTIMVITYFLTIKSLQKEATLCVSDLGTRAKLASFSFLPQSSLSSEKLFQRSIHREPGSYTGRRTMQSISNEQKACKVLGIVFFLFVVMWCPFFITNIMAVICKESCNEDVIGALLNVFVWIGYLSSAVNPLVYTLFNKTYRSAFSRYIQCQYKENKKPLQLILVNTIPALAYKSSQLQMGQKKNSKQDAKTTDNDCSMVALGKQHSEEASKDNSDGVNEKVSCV

## C[C@H](Cc1cc2c(c(C(N)=O)c1)N(CCCO)CC2)NCCOc1ccccc1OCC(F)(F)F [silodosin]
Rats [1]
  potency relative to tamsulosin (times less potent) on UP: 2.8 times

## COc1cc2nc(N(C)CCCNC(=O)C3CCCO3)nc(N)c2cc1OC (centres unmarked) [alfuzosin]
[2]
  pKb: 7.78
Conscious rats
  potency relative to tamsulosin (fold less potent) in decreasing basal urethral pressure: 10 fold
alpha1-adrenoceptors [3]
  pKb: 7.25

## COc1cc(C(=O)O)ccc1OCCCN1CCC(c2noc3cc(F)ccc23)CC1 [4-[3-[4-(6-fluoro-1,2,-benzisoxazol-3-yl)-1-piperidinyl]propoxy]-3-methoxy-benzoic acid]
Alpha 1 adrenoceptors
  affinity/potency for alpha 1 adrenoceptors compared with alpha 2 adrenoreceptors: slightly greater affinity/potency
Alpha 1 adrenoceptors; alpha 1 adrenoceptors
  affinity and potency among receptors: greatest affinity and is most potent
[4]
  activity with respect to the dopamine, histamine and serotonin receptors (other than 5HT2A): very weak if any activity
Rat alpha1A-adrenoceptor
  IC50: 11.5 nM
alpha1-adrenoceptors [5]
  effect on Emax of PE concentration-response curve: unaffected
alpha1-adrenoceptors [5]; n=6 for each dose, 0.1-3 uM
  effect on PE-induced contractions: concentration-dependently antagonized
alpha1-adrenoceptors [6]; 0.1-3 uM, 60 min incubation
  antagonist potency (pA2) estimated by the Schild plot: 7.47
Anesthetized rats [7]; 10 ug/kg i.v., PE 100 ug/kg
  effect on delta UP (over baseline) induced by PE: statistically significant inhibitory effect
Anesthetized rats [7]; 33.3 ug/kg i.v., PE 30-100 and 150 ug/kg
  effect on delta UP (over baseline) induced by PE: statistically significant inhibitory effect
Anesthetized rats [7]; 10, 33.3 and 100 ug/kg i.v.
  dose response curve to PE (urethral pressure): dose-dependently shifted to the right
Anesthetized rats [7]; intravenous route, anesthetized rats
  potency relative to tamsulosin (times less potent): approximately 10 times
Anesthetized rats [7]; test substance 100 ug/kg i.v.
  effect on agonist (PE) effect on UP: statistically significant decrease
Serotonin 5HT2A receptor
  affinity and potency among receptors: greatest affinity and is most potent
Anesthetized rats [8]; 0.5 mg/kg p.o.
  effect on PE-induced increase of basal UP: ineffective
Anesthetized rats [8]; 1.5 mg/kg p.o.
  effect on PE-induced increase of basal UP: slight effect
  UP100% value (dose of PE increasing baseline UP by 100%), statistical significance: reached the level of statistical significance
  effect on BP, from BP10% to BP100%: significant
Anesthetized rats [8]; 4.5 mg/kg p.o.
  effect on PE-induced increase of basal UP: slight effect
  UP100% value (dose of PE increasing baseline UP by 100%), statistical significance: not
  effect on BP, from BP10% to BP100%: no effect
Anesthetized rats [8]; oral route, 1.5 mg/kg at 45 min equipotent with 0.3 mg/kg tamsulosin
  potency relative to tamsulosin (times less potent) on both UP and BP: about 5 times
Anesthetized rats [8]
  effect on basal BP levels: significantly decreased
  effect on basal UP: no effect
[9]
  radioactivity concentrations in the brain (blood-brain barrier crossing): none of the animals had measurable radioactivity concentrations in the brain
[10]
  IC50: 17.8 nM
Rats [11]
  effect on bladder hypertrophy secondary to outlet obstruction: devoid of effect
  effect on cystometric parameters: devoid of significant effect
Rats [11]; exclusively at the lowest dose tested (1 mg/kg/day)
  effect on amplitude of unstable contractions: significantly decreased
[12]
  effect on Emax of NE concentration-response curve: no effect
  effect on pEC50 of the second CRC to NE: concentration-dependent shift
[12]; human alpha1-adrenoceptors in prostatic adenoma
  potency relative to tamsulosin (times less potent): approximately 100 times
[12]; human prostatic adenoma, vs NE, dose-ratios corrected by solvent group
  pA2 estimated by the Schild Plot: 7.50

## CCOc1ccccc1OCCN[C@H](C)Cc1ccc(OC)c(S(N)(=O)=O)c1 [tamsulosin, reference compound]
alpha1-adrenoceptors [5]
  effect on Emax of PE concentration-response curve: unaffected
alpha1-adrenoceptors [5]; rabbit preparation, based on similar PE pEC50 values
  potency of tamsulosin relative to the test substance (times more potent): 300 times
alpha1-adrenoceptors [6]; single concentration 0.01 μM
  pA2 calculated from the dose-ratio of pEC50 values: 10.21
Anesthetized rats [7]; tamsulosin 10 ug/kg
  effect on agonist (PE) effect on UP: statistically significant decrease
Anesthetized rats [8]
  effect on basal BP levels: significantly decreased
  effect on basal UP: no effect
alpha1-adrenoceptors [3]
  pKb: 9.74
Rats [11]
  effect on bladder hypertrophy secondary to outlet obstruction: devoid of effect
  effect on cystometric parameters: completely ineffective
[12]
  effect on Emax of NE concentration-response curve: no effect
  effect on pEC50 of the second CRC to NE: induced a shift
